Data published in patent US9580390B2, “Indazole compounds as kinase inhibitors and method of treating cancer with same” (University Health Network, priority 2011, dated 2017).

Legend:
[1] = test system: ovarian cancer cells (PA-1); test: Cancer cell line growth inhibition (SRB assay); type: cell-based; conditions: Homo sapiens, PA-1; read-out: Cancer Cell Line GI50 Range PA-1
Method: Breast cancer cells (MDA-MB-231), colon cancer cells (HCT116) and ovarian cancer cells (PA-1) were seeded (1000 to 4000 in 80 μl per well depending on the cell growth rate) into 96 well plates 24 hours before compound overlay. Compounds were prepared as 10 mM stock solutions in 100% DMSO which were diluted with DMEM (Dulbecco's Modified Eagle's Medium) cell growth Medium (Invitrogen, Burlington, ON, Canada) containing 10% FBS (Fetal Bovine Serum) to concentrations ranging from 50 nM to 250 μM. Aliquots (20 μl) from each concentration were overlaid to 80 μl of the pre-seeded cells in the 96 well plates to make final concentrations of 10 nM to 50 μM. The cells were cultured for 5 days before the Sulforhodamine B assay (SRB) was performed to determine the compound's cell growth inhibition activity.
Sulforhodamine B (purchased from Sigma, Oakville, ON, Canada) is a water-soluble dye that binds to the basic amino acids of the cellular proteins. Thus, colorimetric measurement of the bound dye provides an estimate of the total protein mass that is related to the cell number. the cells are fixed in situ by gently aspirating off the culture media and adding 50 μl ice cold 10% Trichloroacetic Acid (TCA) per well and incubate at 4° C. for 30-60 min. The plates are washed with H2O five times and allowed to air dry for 5 min. Addition of 50 μl 0.4% (w/v) SRB solution in 1% (v/v) acetic acid to each well and incubation for 30 min at RT completes the staining reaction. Following staining, plates are washed four times with 1% acetic acid to remove unbound dye and then allowed to air dry for 5 min. The stain is solubilized with 100 μl of 10 mM Tris pH 10.5 per well. Absorbance is read at 570 nm.
The percentage (%) of relative growth inhibition was calculated by comparing to DMSO treated only cells (100%). GI50's were determined for compounds with cytotoxic activity. The GI50 was calculated using GraphPad PRISM software (GraphPad Software, Inc., San Diego, Calif., USA).

[2] = test system: colon cancer cells (HCT116); test: Cancer cell line growth inhibition (SRB assay); type: cell-based; conditions: Homo sapiens, HCT-116; read-out: Cancer Cell Line GI50 Range HCT116
Breast cancer cells = test: Cancer cell line growth inhibition (SRB assay); type: cell-based; conditions: Homo sapiens; MDA-MB-468; read-out: Cancer Cell Line GI50 Range MDA-MB-468
TICs (Ovarian 2393A) = test: Ovarian tumor-initiating cell growth inhibition (Alamar Blue); type: cell-based; conditions: 144 h; Ovarian 2393A TICs, 6 days; read-out: Tumor Initiating Cell GI50 Range Ovarain 2393A
TICs (Colon 12) = test: Colon tumor-initiating cell growth inhibition (Alamar Blue); type: cell-based; conditions: 216 h; Colon 12 TICs, 9 days; read-out: Tumor Initiating Cell GI50 Range Colon 12
human TTK = target: T1, human TTK (Homo sapiens, UniProt P33981); test: TTK inhibition assay (indirect ELISA); type: biochemical; conditions: read-out: TTK IC50 Range
T1 construct: amino terminal GST fusion of full length human TTK; purchased Invitrogen
T1 sequence (P33981 1-857): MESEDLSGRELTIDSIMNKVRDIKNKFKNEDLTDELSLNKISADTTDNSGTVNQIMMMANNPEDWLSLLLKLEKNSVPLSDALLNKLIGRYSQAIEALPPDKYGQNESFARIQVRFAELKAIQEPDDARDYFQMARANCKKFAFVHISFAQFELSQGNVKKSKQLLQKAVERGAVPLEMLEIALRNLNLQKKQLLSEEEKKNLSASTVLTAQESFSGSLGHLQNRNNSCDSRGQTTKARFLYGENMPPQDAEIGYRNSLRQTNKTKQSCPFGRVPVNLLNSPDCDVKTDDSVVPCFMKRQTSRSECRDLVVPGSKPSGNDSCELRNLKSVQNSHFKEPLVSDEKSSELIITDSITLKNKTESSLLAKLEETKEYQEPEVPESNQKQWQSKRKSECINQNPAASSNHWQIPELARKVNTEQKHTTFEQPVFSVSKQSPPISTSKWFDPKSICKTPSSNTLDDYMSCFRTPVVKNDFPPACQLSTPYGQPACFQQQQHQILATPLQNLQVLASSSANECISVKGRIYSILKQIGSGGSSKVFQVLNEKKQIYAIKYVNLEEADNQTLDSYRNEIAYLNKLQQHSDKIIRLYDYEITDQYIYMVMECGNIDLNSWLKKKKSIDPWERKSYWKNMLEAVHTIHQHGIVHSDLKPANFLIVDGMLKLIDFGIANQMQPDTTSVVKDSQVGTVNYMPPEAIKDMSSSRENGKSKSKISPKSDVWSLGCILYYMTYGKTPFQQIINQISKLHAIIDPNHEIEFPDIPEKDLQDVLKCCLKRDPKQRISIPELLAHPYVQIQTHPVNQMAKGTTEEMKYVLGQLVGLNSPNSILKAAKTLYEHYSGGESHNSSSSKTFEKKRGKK
Method: Active TTK was purchased from Invitrogen as an amino terminal GST fusion of full length human TTK. Amino terminal 6 histidine, sumo tagged human TTK (residues 1-275) was expressed in E. coli, and purified to >95% homogeneity by Ni^2+ agarose, gel filtration, and ion exchange chromatography.
TTK activity was measured using an indirect ELISA detection system. GST-TTK (0.68 nM) was incubated in the presence of 16 μM ATP (Sigma cat# A7699), 50 mM Hepes pH 7.2, 1 mM EGTA, 10 mM MgCl2, and 0.1% Pluronic in a 96 well microtitre plate pre-coated with amino terminal 6 histidine, sumo tagged TTK (amino acid residues 1-275). The reaction was allowed to proceed for 30 minutes, followed by 5 washes of the plate with Wash Buffer (phosphate buffered saline supplemented with 0.2% Tween 20), and incubation for 30 minutes with a 1:3000 dilution of primary antibody (Cell Signaling cat# 9381). The plate was washed 5 times with Wash Buffer, incubated for 30 minutes in the presence of secondary antibody coupled to horse radish peroxidase (BioRad cat# 1721019, 1:3000 concentration), washed an additional 5 times with Wash Buffer, and incubated in the presence of TMB substrate (Sigma cat# T0440). The colourimetric reaction was allowed to continue for 5 minutes, followed by addition of stop solution (0.5 N sulphuric acid), and quantified by detection at 450 nm with either a monochromatic or filter based plate reader (Molecular Devices M5 or Beckman DTX880, respectively).
Compounds were pre-incubated in the presence of enzyme for 5 minutes prior to addition of ATP and the activity remaining quantified using the above described activity assay. The % Inhibition of a compound was determined using the following formula: % Inhibition=100×(1−(experimental value−background value)/(high activity control−background value)). The IC50 value was determined using a non-linear 4 point logistic curve fit (XLfit4, IDBS) with the formula: (A+(B/(1+((x/C)^D)))), where A=background value, B=range, C=inflection point, D=curve fit parameter.

Work on `CN1CCC(Oc2ccc(-c3n[nH]c4ccc(C(=O)NC(c5ccccc5)C5CC5)cc34)cc2S(C)(=O)=O)CC1` (stereo not drawn) [Example A246, N-(cyclopropyl(phenyl)methyl)-3-(4-((1-methylpiperidin-4-yl)oxy)-3-(methylsulfonyl)phenyl)-1H-indazole-5-carboxamide] yielded a GI50 [1] of less than 100 nM, a GI50 [2] of 100 to 500 nM and a GI50 (Breast cancer cells) greater than 500 nM. The GI50 (TICs (Ovarian 2393A)) was greater than 500 nM, the GI50 (TICs (Colon 12)) was greater than 500 nM and the IC50 (human TTK) was less than 100 nM.
With `CN1CCC2(CC1)CC(=O)c1cc(-c3n[nH]c4ccc(C(=O)N[C@H](c5ccccn5)C5CC5)cc34)ccc1O2` [Example A257, (S)-N-(cyclopropyl(pyridin-2-yl)methyl)-3-(1′-methyl-4-oxospiro[chroman-2,4′-piperidin]-6-yl)-1H-indazole-5-carboxamide] the GI50 [1] was less than 100 nM, the GI50 [2] was less than 100 nM and the GI50 (Breast cancer cells) was 100 to 500 nM. It also gave a GI50 (TICs (Ovarian 2393A)) of 100 to 500 nM, a GI50 (TICs (Colon 12)) of 100 to 500 nM and an IC50 (human TTK) of less than 100 nM.
`CC1=CC2(CCN(C)CC2)Oc2ccc(-c3n[nH]c4ccc(C(=O)N[C@H](c5ccccc5Cl)C(C)C)cc34)cc21` [Example A258, (S)-N-(1-(2-chlorophenyl)-2-methylpropyl)-3-(1′,4-dimethylspiro[chromene-2,4′-piperidin]-6-yl)-1H-indazole-5-carboxamide] showed a GI50 [1] of less than 100 nM, a GI50 [2] of less than 100 nM and a GI50 (Breast cancer cells) of less than 100 nM. The GI50 (TICs (Ovarian 2393A)) was less than 100 nM, the GI50 (TICs (Colon 12)) was less than 100 nM and the IC50 (human TTK) was less than 100 nM.
With `CC(C)[C@H](NC(=O)c1ccc2[nH]nc(-c3ccc(OC4CCN(C)CC4)c(S(C)(=O)=O)c3)c2c1)c1ccccc1Cl` [Example A259, (S)-N-(1-(2-chlorophenyl)-2-methylpropyl)-3-(4-((1-methylpiperidin-4-yl)oxy)-3-(methylsulfonyl)phenyl)-1H-indazole-5-carboxamide] the GI50 [1] was less than 100 nM, the GI50 [2] was less than 100 nM and the GI50 (Breast cancer cells) was less than 100 nM. The GI50 (TICs (Ovarian 2393A)) was less than 100 nM, the GI50 (TICs (Colon 12)) was 100 to 500 nM and the IC50 (human TTK) was less than 100 nM.
For `CC1=CC2(CCN(C)CC2)Oc2ccc(-c3n[nH]c4ccc(C(=O)N[C@H](c5ccccn5)C5CC5)cc34)cc21` [Example A260, (S)-N-(cyclopropyl(pyridin-2-yl)methyl)-3-(1′,4-dimethylspiro[chromene-2,4′-piperidin]-6-yl)-1H-indazole-5-carboxamide], the GI50 [1] was less than 100 nM, the GI50 [2] was less than 100 nM and the GI50 (Breast cancer cells) was less than 100 nM. The GI50 (TICs (Ovarian 2393A)) was less than 100 nM, the GI50 (TICs (Colon 12)) was 100 to 500 nM and the IC50 (human TTK) was less than 100 nM.
For `O=C(N[C@H](c1ccccn1)C1CC1)c1ccc2[nH]nc(-c3ccc4c(c3)C(=O)CC3(CCN(C5COC5)CC3)O4)c2c1` [Example A264, (S)-N-(cyclopropyl(pyridin-2-yl)methyl)-3-(1′-(oxetan-3-yl)-4-oxospiro[chroman-2,4′-piperidin]-6-yl)-1H-indazole-5-carboxamide], the GI50 [1] was less than 100 nM, the GI50 [2] was less than 100 nM and the GI50 (Breast cancer cells) was less than 100 nM. For the same compound, the GI50 (TICs (Ovarian 2393A)) was 100 to 500 nM, the GI50 (TICs (Colon 12)) was 100 to 500 nM and the IC50 (human TTK) was less than 100 nM.
In the case of `O=C(N[C@H](c1ccccc1F)C1CC1)c1ccc2[nH]nc(-c3ccc(N4C5CCC4CC(O)C5)cc3)c2c1` (stereo partly drawn) [Example A265, N-((S)-cyclopropyl(2-fluorophenyl)methyl)-3-(4-((1R,3R,5S)-3-hydroxy-8-azabicyclo[3.2.1]octan-8-yl)phenyl)-1H-indazole-5-carboxamide], the GI50 [1] is reported as less than 100 nM, the GI50 [2] is reported as less than 100 nM and the GI50 (Breast cancer cells) is reported as less than 100 nM. It also gave a GI50 (TICs (Ovarian 2393A)) of less than 100 nM, a GI50 (TICs (Colon 12)) of less than 100 nM and an IC50 (human TTK) of less than 100 nM.
`O=C(N[C@@H](c1ccccc1F)C1CC1)c1ccc2[nH]nc(-c3ccc(N4C5CCC4CC(O)C5)cc3)c2c1` (stereo partly drawn) [Example A266, N-((R)-cyclopropyl(2-fluorophenyl)methyl)-3-(4-((1R,3R,5S)-3-hydroxy-8-azabicyclo[3.2.1]octan-8-yl)phenyl)-1H-indazole-5-carboxamide] gave a GI50 [1] of less than 100 nM, a GI50 [2] of less than 100 nM and a GI50 (Breast cancer cells) of less than 100 nM. It also gave a GI50 (TICs (Ovarian 2393A)) of less than 100 nM, a GI50 (TICs (Colon 12)) of less than 100 nM and an IC50 (human TTK) of less than 100 nM.
Compound `O=C(N[C@H](c1ccccc1F)C1CC1)c1ccc2[nH]nc(-c3ccc(N4CCN(C5COC5)CC4)cc3)c2c1` [Example A269, (S)-N-(cyclopropyl(2-fluorophenyl)methyl)-3-(4-(4-(oxetan-3-yl)piperazin-1-yl)phenyl)-1H-indazole-5-carboxamide] has a GI50 [1] of less than 100 nM, a GI50 [2] of less than 100 nM and a GI50 (Breast cancer cells) of less than 100 nM. It also gave a GI50 (TICs (Ovarian 2393A)) of less than 100 nM, a GI50 (TICs (Colon 12)) of less than 100 nM and an IC50 (human TTK) of less than 100 nM.
`CC(C)[C@H](NC(=O)c1ccc2[nH]nc(-c3ccc(OC4CCN(C)CC4)cc3)c2c1)c1ccccc1Cl` [Example A273, (S)-N-(1-(2-chlorophenyl)-2-methylpropyl)-3-(4-((1-methylpiperidin-4-yl)oxy)phenyl)-1H-indazole-5-carboxamide] showed a GI50 [1] of less than 100 nM, a GI50 [2] of less than 100 nM and a GI50 (Breast cancer cells) of less than 100 nM. For the same compound, the GI50 (TICs (Ovarian 2393A)) was less than 100 nM, the GI50 (TICs (Colon 12)) was less than 100 nM and the IC50 (human TTK) was less than 100 nM.
In the case of `CC(C)C(NC(=O)c1ccc2[nH]nc(-c3ccc(O[C@H]4C[C@H]5CC[C@@H](C4)N5C)cc3)c2c1)c1ccccc1Cl` (stereo partly drawn) [Example A279, N-(1-(2-chlorophenyl)-2-methylpropyl)-3-(4-(((1R,3R,5S)-8-methyl-8-azabicyclo[3.2.1]octan-3-yl)oxy)phenyl)-1H-indazole-5-carboxamide], the GI50 [1] is reported as less than 100 nM, the GI50 [2] is reported as less than 100 nM and the GI50 (Breast cancer cells) is reported as less than 100 nM. The GI50 (TICs (Ovarian 2393A)) was 100 to 500 nM, the GI50 (TICs (Colon 12)) was 100 to 500 nM and the IC50 (human TTK) was less than 100 nM.
In the case of `CN1[C@@H]2CC[C@H]1C[C@@H](Oc1ccc(-c3n[nH]c4ccc(C(=O)NC(c5ccsc5)C5CCC5)cc34)cc1)C2` (stereo partly drawn) [Example A283, N-(cyclobutyl(thiophen-3-yl)methyl)-3-(4-(((1R,3R,5S)-8-methyl-8-azabicyclo[3.2.1]octan-3-yl)oxy)phenyl)-1H-indazole-5-carboxamide], the GI50 [1] is reported as less than 100 nM, the GI50 [2] is reported as less than 100 nM and the GI50 (Breast cancer cells) is reported as 100 to 500 nM. The GI50 (TICs (Ovarian 2393A)) was 100 to 500 nM, the GI50 (TICs (Colon 12)) was 100 to 500 nM and the IC50 (human TTK) was less than 100 nM.
`CC(C)C[C@H](NC(=O)c1ccc2[nH]nc(-c3ccc(N4[C@@H]5CC[C@H]4COC5)cc3)c2c1)c1ccccn1` [Example A303, 3-(4-((1R,5S)-3-oxa-8-azabicyclo[3.2.1]octan-8-yl)phenyl)-N-((S)-3-methyl-1-(pyridin-2-yl)butyl)-1H-indazole-5-carboxamide] showed a GI50 [1] of less than 100 nM, a GI50 [2] of less than 100 nM and a GI50 (Breast cancer cells) of less than 100 nM. For the same compound, the GI50 (TICs (Ovarian 2393A)) was less than 100 nM, the GI50 (TICs (Colon 12)) was less than 100 nM and the IC50 (human TTK) was less than 100 nM.
In the case of `O=C(N[C@H](c1ccccn1)C1CCCC1)c1ccc2[nH]nc(-c3ccc(N4CC(C5COC5)C4)cc3)c2c1` [Example A309, (S)-N-(cyclopentyl(pyridin-2-yl)methyl)-3-(4-(3-(oxetan-3-yl)azetidin-1-yl)phenyl)-1H-indazole-5-carboxamide], the GI50 [1] is reported as less than 100 nM, the GI50 [2] is reported as less than 100 nM and the GI50 (Breast cancer cells) is reported as less than 100 nM. It also gave a GI50 (TICs (Ovarian 2393A)) of less than 100 nM, a GI50 (TICs (Colon 12)) of less than 100 nM and an IC50 (human TTK) of less than 100 nM.
With `CC(C)[C@H](NC(=O)c1ccc2[nH]nc(-c3ccc(N4CC(C5COC5)C4)cc3)c2c1)c1ccccc1Cl` [Example A310, (S)-N-(1-(2-chlorophenyl)-2-methylpropyl)-3-(4-(3-(oxetan-3-yl)azetidin-1-yl)phenyl)-1H-indazole-5-carboxamide] the GI50 [1] was less than 100 nM, the GI50 [2] was less than 100 nM and the GI50 (Breast cancer cells) was less than 100 nM. For the same compound, the GI50 (TICs (Ovarian 2393A)) was less than 100 nM, the GI50 (TICs (Colon 12)) was less than 100 nM and the IC50 (human TTK) was less than 100 nM.
Compound `O=C(N[C@H](c1ccccn1)C1CC1)c1ccc2[nH]nc(-c3ccc(N4CC(C5COC5)C4)cc3)c2c1` [Example A311, (S)-N-(cyclopropyl(pyridin-2-yl)methyl)-3-(4-(3-(oxetan-3-yl)azetidin-1-yl)phenyl)-1H-indazole-5-carboxamide] has a GI50 [1] of less than 100 nM, a GI50 [2] of less than 100 nM and a GI50 (Breast cancer cells) of less than 100 nM. For the same compound, the GI50 (TICs (Ovarian 2393A)) was less than 100 nM, the GI50 (TICs (Colon 12)) was less than 100 nM and the IC50 (human TTK) was less than 100 nM.
Work on `CC(C)C[C@H](NC(=O)c1ccc2[nH]nc(-c3ccc(N4CC(N5CCOCC5)C4)cc3)c2c1)c1ccccc1Cl` [Example A315, (S)-N-(1-(2-chlorophenyl)-3-methylbutyl)-3-(4-(3-morpholinoazetidin-1-yl)phenyl)-1H-indazole-5-carboxamide] yielded a GI50 [1] of less than 100 nM, a GI50 [2] of less than 100 nM and a GI50 (Breast cancer cells) of 100 to 500 nM. The GI50 (TICs (Ovarian 2393A)) was 100 to 500 nM, the GI50 (TICs (Colon 12)) was less than 100 nM and the IC50 (human TTK) was less than 100 nM.
